According to patent US7166609B2, “Pyrimidine-4,6-dicarboxylic acid diamides for selectively inhibiting collagenases” (Sanofi-Aventis Deutschland GmbH, priority 2002, dated 2007):

What follows are compounds tested against T1, catalytic domain of human collagenase 3 (MMP-13) (Homo sapiens, UniProt P45452) (assay: Enzyme activity of the catalytic domain of human collagenase 3 (MMP-13), fluorogenic substrate). Conditions: catalytic domain, activated proenzyme, pH 7.5; read-out: IC50 MMP13.
T1 construct: Determining the enzyme activity of the catalytic domain of human collagenase 3 (MMP-13); purchased INVITEK, Berlin 30 100 803
Type: biochemical
Method: Determining the enzyme activity of the catalytic domain of human collagenase 3 (MMP-13).
Activating the proenzyme:
2 parts by volume of proenzyme are incubated with 1 part by volume of APMA solution at 37° C. for 1.5 hours. The APMA solution is prepared from a 10 mmol/L solution of p-aminophenylmercuric acetate in 0.1 mmol/L NaOH by diluting with 3 parts by volume of tris/HCl buffer, pH 7.5 (see below). The pH is adjusted to between 7.0 and 7.5 by adding 1 mmol/L HCl. After the enzyme has been activated, it is diluted to a concentration of 1.67 μg/ml using the tris/HCl buffer.
In order to measure the enzyme activity, 10 μL of enzyme solution are incubated for 15 minutes with 10 μL of a 3% (v/v) buffered solution of dimethyl sulfoxide (reaction 1). In order to measure the enzyme inhibitor activity, 10 μL of enzyme solution are incubated with 10 μL of a 3% (v/v) buffered solution of dimethyl sulfoxide containing the enzyme inhibitor (reaction 2).
In the case of both reaction 1 and reaction 2, the enzyme reaction is monitored by fluorescence spectroscopy (328 nm (extinction)/393 nm (emission)) after adding 10 μL of a 3% (v/v) aqueous solution of dimethyl sulfoxide containing 0.75 mmol of the substrate/L.
The enzyme activity is depicted as increase in extinction/minute.
The effect of the inhibitor is calculated as a percentage inhibition using the following formula: % inhibition=100−[(increase in extinction/minute in reaction 2)/(increase in extinction/minute in reaction 1)×100].
The IC50, i.e. the inhibitor concentration which is required for inhibiting the enzyme activity by 50%, is determined graphically by plotting the percentage inhibitions at different inhibitor concentrations.
The buffer solution contains 0.05% Brij (Sigma, Deisenhofen, Germany) and 0.1 mol of tris/HCl/L, 0.1 mol of NaCl/L and 0.01 mol of CaCl2/L (pH=7.5). The enzyme solution contains 1.67 μg of the enzyme domain/mL.
The substrate solution contains 0.75 mmol/L of the fluorogenic substrate (7-methoxycoumarin-4-yl)acetyl-Pro-Leu-Gly-Leu-3-(2′,4′-dinitrophenyl)-L-2,3-diaminopropionyl-Ala-Arg-NH2 (Bachem, Heidelberg, Germany).

SMILES | IC50 [µM]
O=C(O)CNC(=O)c1ccc(CNC(=O)c2cc(C(=O)NCc3ccc4c(c3)CCO4)ncn2)cc1 [Example 98] | 0.02
O=C(NCc1ccc(C(=O)N2CCC(O)CC2)cc1)c1cc(C(=O)NCc2ccc3c(c2)CCO3)ncn1 [Example 68] | 0.022
COc1cccc(CNC(=O)c2cc(C(=O)NCc3ccc(NC(=O)OC(C)C)cc3)ncn2)c1 [Example 6] | 0.02
COc1cccc(CNC(=O)c2cc(C(=O)NCc3ccc(C(=O)NC#N)cc3)ncn2)c1 [Example 86] | 0.0025
